Where “and” joins values, the source holds several entries; their conditions need not be identical. Equal values may be shown once. Read-outs that look alike come from different tables or passages of the source.
Legend:
GluN1–1a/2D = GluN1–1a/2D (Rattus norvegicus, UniProt P35439+Q62645); assay: Two-electrode voltage-clamp recordings, Xenopus oocytes; type: cell-based; conditions: for Relative Imax: isoform 1a; for Spermine modulation (% control): 100 μM spermine, −20 mV
GluN1–1a/2BC1/2DC2 = GluN1–1a/2BC1/2DC2 (Rattus norvegicus, UniProt P35439+Q00959+Q00960+Q62645, A876H/F846L/G856D/H848F/K857R/M851T/M860L/Q845K/R869K/V861L/V866F); assay: as above; type: cell-based; conditions: for Relative Imax: isoform 1a; for Spermine modulation (% control): 100 μM spermine, −20 mV
GluN1–1b/2B = GluN1–1b/2B (Rattus norvegicus, UniProt P35439+Q00960); assay: as above; type: cell-based; conditions: at 10 μM; isoform 1b
GluN1–1b/2D = GluN1–1b/2D (Rattus norvegicus, UniProt P35439+Q62645); assay: as above; type: cell-based; conditions: at 10 μM; isoform 1b
GluN1–1b/2BC1/2DC2 = GluN1–1b/2BC1/2DC2 (Rattus norvegicus, UniProt P35439+Q00959+Q00960+Q62645, A876H/F846L/G856D/H848F/K857R/M851T/M860L/Q845K/R869K/V861L/V866F); assay: as above; type: cell-based; conditions: at 10 μM; isoform 1b
GluN1–1a/2B = GluN1–1a/2B (Rattus norvegicus, UniProt P35439+Q00960); assay: as above; type: cell-based; conditions: for Spermine modulation (% control): 100 μM spermine, −20 mV
[1] = test system: NMDAR-EPSCs in hippocampal CA1 pyramidal cells; assay: Whole-cell patch-clamp of NMDAR-EPSCs in acute hippocampal slices; type: cell-based, mouse; conditions: 100 μM; +40 mV; P21–28 slices
[2] = test system: NMDAR-EPSCs in hippocampal interneurons (CA1 s.r./s.l.m.); assay: as above; type: cell-based, mouse
GluN1–1a/2A = GluN1–1a/2A (Rattus norvegicus, UniProt P35439+Q00959); conditions: 100 μM spermine, −20 mV
GluN1–1a/2AC1/2BC2 = GluN1–1a/2AC1/2BC2 (Rattus norvegicus, UniProt P35439+Q00959+Q00960, A876H/F846L/G856D/H848F/K857R/M851T/M860L/Q845K/V861L); conditions: 100 μM spermine, −20 mV
[3] = at 100 μM, pH 7.4, holding potential −20 mV

Chain of GluN1–1a/2B (Q00960 27-1482, other chains not shown): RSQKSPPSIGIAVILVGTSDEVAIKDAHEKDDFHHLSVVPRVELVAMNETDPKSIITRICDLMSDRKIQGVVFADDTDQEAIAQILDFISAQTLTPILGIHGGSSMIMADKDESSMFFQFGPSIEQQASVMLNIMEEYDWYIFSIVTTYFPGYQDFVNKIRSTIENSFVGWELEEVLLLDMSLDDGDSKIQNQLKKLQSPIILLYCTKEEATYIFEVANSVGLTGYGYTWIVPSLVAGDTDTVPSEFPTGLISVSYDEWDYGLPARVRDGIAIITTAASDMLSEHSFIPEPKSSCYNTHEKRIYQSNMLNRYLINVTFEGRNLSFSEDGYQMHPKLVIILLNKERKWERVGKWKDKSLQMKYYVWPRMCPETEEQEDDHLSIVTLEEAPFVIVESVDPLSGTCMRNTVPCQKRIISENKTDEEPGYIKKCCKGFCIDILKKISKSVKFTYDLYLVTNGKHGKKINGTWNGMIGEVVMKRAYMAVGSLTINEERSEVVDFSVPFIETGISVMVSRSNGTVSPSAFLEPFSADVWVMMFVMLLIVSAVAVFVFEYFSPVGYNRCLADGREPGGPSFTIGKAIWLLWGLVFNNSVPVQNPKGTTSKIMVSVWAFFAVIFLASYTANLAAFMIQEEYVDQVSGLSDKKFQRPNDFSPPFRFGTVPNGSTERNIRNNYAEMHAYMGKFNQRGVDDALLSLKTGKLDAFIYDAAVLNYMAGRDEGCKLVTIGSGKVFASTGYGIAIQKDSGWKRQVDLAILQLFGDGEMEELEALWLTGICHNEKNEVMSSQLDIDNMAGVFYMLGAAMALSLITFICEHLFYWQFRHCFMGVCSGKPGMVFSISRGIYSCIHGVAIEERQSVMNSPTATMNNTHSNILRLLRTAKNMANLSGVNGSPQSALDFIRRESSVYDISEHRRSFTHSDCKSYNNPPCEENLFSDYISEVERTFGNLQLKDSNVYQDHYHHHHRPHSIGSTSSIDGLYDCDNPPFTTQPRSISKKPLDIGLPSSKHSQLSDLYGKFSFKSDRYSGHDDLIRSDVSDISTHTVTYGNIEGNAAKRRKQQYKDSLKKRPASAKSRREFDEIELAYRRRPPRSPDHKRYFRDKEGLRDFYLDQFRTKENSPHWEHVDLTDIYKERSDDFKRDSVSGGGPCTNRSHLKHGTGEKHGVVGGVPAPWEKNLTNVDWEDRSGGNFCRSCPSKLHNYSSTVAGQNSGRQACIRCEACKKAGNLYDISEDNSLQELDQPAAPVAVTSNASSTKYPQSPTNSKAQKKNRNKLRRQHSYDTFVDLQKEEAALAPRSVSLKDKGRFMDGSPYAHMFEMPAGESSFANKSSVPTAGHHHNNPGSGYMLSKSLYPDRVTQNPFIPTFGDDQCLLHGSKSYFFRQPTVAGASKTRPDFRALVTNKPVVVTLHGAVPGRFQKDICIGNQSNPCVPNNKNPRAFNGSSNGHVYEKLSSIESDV
Chain of GluN1–1a/2A (Q00959 23-1464, other chains not shown): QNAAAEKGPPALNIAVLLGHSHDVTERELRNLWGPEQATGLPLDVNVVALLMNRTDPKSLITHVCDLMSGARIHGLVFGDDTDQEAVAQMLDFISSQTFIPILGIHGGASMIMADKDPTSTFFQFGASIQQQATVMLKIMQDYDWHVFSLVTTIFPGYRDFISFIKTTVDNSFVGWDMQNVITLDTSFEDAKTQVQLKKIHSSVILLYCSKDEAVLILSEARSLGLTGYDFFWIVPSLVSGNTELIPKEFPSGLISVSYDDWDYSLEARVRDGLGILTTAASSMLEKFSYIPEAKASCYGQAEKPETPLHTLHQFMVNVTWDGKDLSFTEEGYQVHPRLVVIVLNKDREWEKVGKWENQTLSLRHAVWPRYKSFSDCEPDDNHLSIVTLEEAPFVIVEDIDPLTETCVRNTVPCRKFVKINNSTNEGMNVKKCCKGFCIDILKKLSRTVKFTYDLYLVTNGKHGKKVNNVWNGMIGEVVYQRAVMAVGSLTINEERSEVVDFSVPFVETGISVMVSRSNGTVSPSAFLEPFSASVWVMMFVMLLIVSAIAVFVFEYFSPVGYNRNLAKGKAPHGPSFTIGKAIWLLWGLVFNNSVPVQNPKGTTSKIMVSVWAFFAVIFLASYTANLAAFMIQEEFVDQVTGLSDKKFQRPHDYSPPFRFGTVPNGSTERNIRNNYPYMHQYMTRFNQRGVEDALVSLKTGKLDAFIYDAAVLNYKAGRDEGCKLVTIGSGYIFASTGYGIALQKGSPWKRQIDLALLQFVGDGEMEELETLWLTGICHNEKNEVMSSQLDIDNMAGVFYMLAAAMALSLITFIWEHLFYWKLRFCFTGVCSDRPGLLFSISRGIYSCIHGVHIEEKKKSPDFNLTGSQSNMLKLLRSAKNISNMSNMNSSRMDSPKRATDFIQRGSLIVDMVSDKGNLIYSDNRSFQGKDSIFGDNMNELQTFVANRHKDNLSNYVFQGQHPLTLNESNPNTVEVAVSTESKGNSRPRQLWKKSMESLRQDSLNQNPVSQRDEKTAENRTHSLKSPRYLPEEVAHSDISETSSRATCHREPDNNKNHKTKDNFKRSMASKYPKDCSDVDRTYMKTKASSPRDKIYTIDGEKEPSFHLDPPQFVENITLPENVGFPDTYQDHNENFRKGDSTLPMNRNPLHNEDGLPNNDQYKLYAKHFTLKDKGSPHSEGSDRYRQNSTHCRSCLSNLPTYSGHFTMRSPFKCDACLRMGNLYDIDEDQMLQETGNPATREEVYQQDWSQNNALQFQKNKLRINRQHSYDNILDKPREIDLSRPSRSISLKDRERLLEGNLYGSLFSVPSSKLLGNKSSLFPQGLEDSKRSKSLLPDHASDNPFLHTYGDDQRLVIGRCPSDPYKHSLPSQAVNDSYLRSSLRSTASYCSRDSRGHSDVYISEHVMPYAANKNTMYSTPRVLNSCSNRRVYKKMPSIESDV
Chain of GluN1–1a/2D (Q62645 28-1323, other chains not shown): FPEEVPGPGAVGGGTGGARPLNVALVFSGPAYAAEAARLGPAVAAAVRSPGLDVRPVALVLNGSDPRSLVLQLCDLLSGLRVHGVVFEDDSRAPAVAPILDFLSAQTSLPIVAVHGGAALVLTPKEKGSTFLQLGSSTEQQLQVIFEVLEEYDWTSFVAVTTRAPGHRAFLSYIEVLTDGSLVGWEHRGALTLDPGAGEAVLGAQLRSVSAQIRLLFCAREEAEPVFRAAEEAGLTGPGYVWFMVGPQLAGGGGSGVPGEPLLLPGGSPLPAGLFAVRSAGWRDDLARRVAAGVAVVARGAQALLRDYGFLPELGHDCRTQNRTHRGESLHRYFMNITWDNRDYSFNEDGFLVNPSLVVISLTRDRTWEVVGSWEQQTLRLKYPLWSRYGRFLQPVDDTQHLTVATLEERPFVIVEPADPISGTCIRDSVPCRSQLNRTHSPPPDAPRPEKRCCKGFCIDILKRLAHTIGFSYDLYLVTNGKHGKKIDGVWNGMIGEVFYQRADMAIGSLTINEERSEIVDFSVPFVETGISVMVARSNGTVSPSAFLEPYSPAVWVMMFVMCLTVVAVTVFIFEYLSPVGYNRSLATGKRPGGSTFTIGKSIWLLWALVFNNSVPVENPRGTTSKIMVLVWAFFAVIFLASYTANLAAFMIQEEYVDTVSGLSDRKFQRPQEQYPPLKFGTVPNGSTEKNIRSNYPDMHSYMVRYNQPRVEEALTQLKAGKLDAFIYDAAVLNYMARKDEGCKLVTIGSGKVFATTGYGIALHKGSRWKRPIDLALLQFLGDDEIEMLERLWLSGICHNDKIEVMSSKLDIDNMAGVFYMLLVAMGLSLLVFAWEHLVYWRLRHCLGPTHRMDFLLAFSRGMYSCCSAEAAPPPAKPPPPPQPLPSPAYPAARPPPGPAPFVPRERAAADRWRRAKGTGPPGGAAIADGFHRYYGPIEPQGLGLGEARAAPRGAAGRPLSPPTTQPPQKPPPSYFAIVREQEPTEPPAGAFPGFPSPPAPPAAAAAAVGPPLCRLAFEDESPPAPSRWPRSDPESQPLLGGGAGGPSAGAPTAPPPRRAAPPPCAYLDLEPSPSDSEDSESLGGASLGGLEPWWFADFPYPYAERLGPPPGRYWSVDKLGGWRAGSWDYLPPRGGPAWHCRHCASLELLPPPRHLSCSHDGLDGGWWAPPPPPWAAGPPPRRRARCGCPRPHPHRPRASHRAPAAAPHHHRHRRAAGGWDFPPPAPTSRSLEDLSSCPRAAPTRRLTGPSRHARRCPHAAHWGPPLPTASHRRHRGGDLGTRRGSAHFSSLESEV
Chain of GluN1–1b/2D (Q62645 28-1323, other chains not shown): as above

## COc1ccc(OCC2c3cc(OC)c(OC)cc3CCN2C(=O)c2cccc(Cl)c2)cc1 (stereo not drawn) [CIQ]
GluN1–1a/2D; at 10 μM, relative to control
  Relative Imax: 227% and 227 ± 8%
GluN1–1a/2BC1/2DC2; at 10 μM, relative to control
  Relative Imax: 139% and 139 ± 3%
GluN1–1b/2B
  Relative Imax: 91% and 91 ± 3%
GluN1–1b/2D
  Relative Imax: 197% and 197 ± 8%
GluN1–1b/2BC1/2DC2
  Relative Imax: 115% and 115 ± 3%

## NCCCNCCCCNCCCN [spermine]
GluN1–1a/2D; pH 6.8
  Spermine modulation (% control): 82 ± 1 % control
GluN1–1a/2D; pH 7.4
  Spermine modulation (% control): 71 ± 0.4 % control
GluN1–1a/2D; pH 7.4, listed as Spermine
  Spermine modulation (% control): 71 % control
GluN1–1a/2D; [3]
  Relative Imax: 71 ± 0.4%
GluN1–1a/2B; pH 6.8
  Spermine modulation (% control): 585 ± 29 % control
GluN1–1a/2B; pH 7.4
  Spermine modulation (% control): 211 ± 6 % control
GluN1–1a/2B; pH 7.4, listed as Spermine
  Spermine modulation (% control): 211 % control
GluN1–1a/2B; at 100 μM, pH 7.4, holding potential −20 mV, isoform 1a
  Relative Imax: 211 ± 6%
[1]
  NMDAR-EPSC peak amplitude, % of baseline: 95 ± 5 % of baseline
GluN1–1a/2BC1/2DC2; pH 6.8
  Spermine modulation (% control): 233 ± 10 % control
GluN1–1a/2BC1/2DC2; pH 7.4
  Spermine modulation (% control): 150 ± 2 % control
GluN1–1a/2BC1/2DC2; pH 7.4, listed as Spermine
  Spermine modulation (% control): 150 % control
GluN1–1a/2BC1/2DC2; [3]
  Relative Imax: 150 ± 2%
[2]; 100 μM, +40 mV, P21–28 slices
  NMDAR-EPSC peak amplitude, % of baseline: 137 ± 13 % of baseline
[2]; treatment versus baseline, paired t test, 10 μM (spermine 100 μM)
  effect on EPSC decay time: unchanged
GluN1–1a/2A; pH 6.8
  Spermine modulation (% control): 79 ± 1 % control
GluN1–1a/2A; pH 7.4
  Spermine modulation (% control): 72 % control and 72 ± 1 % control
GluN1–1a/2AC1/2BC2; pH 6.8
  Spermine modulation (% control): 95 ± 0.1 % control
GluN1–1a/2AC1/2BC2; pH 7.4
  Spermine modulation (% control): 80 ± 1 % control

From article PMC6858497 (The Journal of physiology, 2019)
